# Assay results published in patent publication US20040009486A1, “Compositions and methods utilizing DNA polymerases” (priority 1999, published 2004).
# Where two headings read alike, the source gives them in different places.
# How the values were obtained:
# Assay type in all cases: biochemical
# [1] = tested on: pBL34A:pBluescript II; assay: Kinetics of TAMRA-ddATP insertion versus TAMRA-ddGTP misinsertion opposite dT
# Experimental: To determine the kinetics of misinsertion, the steady state Michaelis-Menten Km and Vmax parameters were calculated by incubations of limiting amounts of enzyme (0.1 units or 5 nM) in presence of 50 nM primer:template and varying concentrations of non-complementary rhodamine labeled ddNTP (1 nM to 10,000 nM) for 10 minutes at 60° C. Analysis and quantitations were performed as above.
# To gain more insight into the mechanism of lower fidelity, we determined the misinsertion frequency for the mispair ddG:dT, which was evaluated in terms of relative Km and Vmax values for the wrong versus correct dye-ddNTP. Efficiency of nucleotide misinsertion was determined opposite a DNA template dT, primed with a 34-nucleotide oligomer (pBL34A). Apparent Michaelis constant (Km) and maximum velocity (Vmax) and relative insertion frequencies were measured for ddATP and ddGTP (Table X).
# To determine the kinetics of misinsertion, Km and Vmax values were calculated by incubating limiting amounts of enzyme (0.1 units, 5 nM) in presence of 50 nM primer:template (pBL34A:pBluescript II) and varying concentrations of non-complementary rhodamine-ddGTP (1-10,000 nM) for 10 minutes at 60° C. Analysis and quantitation were performed as above.
# [2] = tested on: pFL-35:pBluescript; assay: Fidelity assay with unlabeled ddNTPs; conditions: compared to JDF-3 P410L/A485T
# Experimental: A second set of fidelity assays was conducted to address the contribution of rhodamine dye to high ddG:dT and ddT:dC misinsertion frequency. A fluorescently labeled primer (2.5 nM pFL35) opposite dT in the template strand was extended, in reactions containing either correct (ddA) or incorrect (ddG) unlabeled ddNTPs (at concentrations of 1.25 nM to 10 nM) ([…]). Similar experiments were performed in which primer extension occured opposite dC in the template strand, in the presence of correct (ddG) or incorrect (ddT) unlabeled ddNTPs (FIG. 28 panel B). Incorporation of ddNMP at the 3′-end of the primer was detected as a shift in primer mobility.
# Fidelity assays using unlabeled ddNTPs (10 μl) contained 2.5 nM primer:template (pFL-35:pBluescript), 1 U DNA polymerase, and 1× reaction buffer. Complementary or non-complementary ddNTP was added to the reaction at concentrations of 0, 1.25, 10, 50, or 100 nM. The reactions were incubated in a Perkin-Elmer 9600 for 25 cycles as follows: 96° C. for 10 s, 50° C. for 5 s, and 60° C. for 30 s, and then analyzed as describe above.
# [3] = tested on: pBL25C and Temp-A, Temp-T, Temp-C, or Temp-G; assay: Rhodamine labeled ddNTP incorporation, TAMRA- and R110-ddNTPs (FIG. 16)
# Experimental: These experiments were performed using 1 unit of enzyme, 15 nM primer:template (pBL25C and Temp-A, Temp-T, Temp-C, or Temp-G in four separate reactions), and 50 nM dye-ddNTP (TAMRA- or R110-labeled). The reactions were incubated at 60° C. for 10 minutes and then quenched with ice-cold 0.2 M EDTA (final concentration). The products were purified from unincorporated dye-labeled ddNTPs and analyzed as described above.
# Relative incorporation of rhodamine labeled-ddNTPs by the JDF-3 P410L/A485T and Taq F667Y mutants was determined. We used both TAMRA- and R 110-labeled ddNTPs, and the amount of incorporated dye-ddNTPs was measured in fluorescense units. These experiments were performed using pBL25C as the primer, and Temp-A, Temp-T, Temp-C, or Temp-G as the complementary template in four separate reactions. The only difference between these four primer:template systems is the SNP site, thereby eliminating the possibility that primer:template sequence has an effect on dye-ddNTP incorporation. […] Gardner and Jack had also observed variation in the incorporation of ribonucleotides by the A488L mutant (equivalent to JDF-3 A485) of Vent DNA polymerase (from archaeon Thermococcus litoralis)^15.
# We performed similar rhodamine labeled-ddNTP incorporation experiments using the same number of units of Taq F667Y.
# [4] = tested on: primer:template; assay: Fidelity screen with rhodamine labeled non-complementary ddNTP; conditions: R110-labeled incorrect ddNTP
# Experimental: Reactions (10 μl) contained 1 unit of enzyme in 1× reaction buffer, 15 nM primer template, 25 nM of unlabeled complementary ddNTP, and 25, 100, 500, or 1000 nM of rhodamine labeled non-complementary ddNTP in four separate reactions. The reactions were incubated in a Perkin-Elmer 9600 for 25 cycles as follows: 96° C. for 10 s, 50° C. for 5 s, and 60° C. for 30 s. The reactions were then quenched with ice-cold 0.2 M EDTA (final concentration) and the products were purified from unincorporated rhodamine labeled ddNTPs and analyzed as described above.
# Fidelity was determined as the tendency of a DNA polymerase to incorporate the correct nucleotide in the presence of increasing amounts of a non-complementary nucleotide. These assays employed constant amounts of primer:template, an unlabeled complementary ddNTP and DNA polymerase, and various concentrations of a rhodamine-labeled non-complementary ddNTP, as described in the Experimental Protocol. The amount of misextended primers is plotted against the ratio of rhodamine-labeled incorrect ddNTP/unlabeled correct ddNTP (FIG. 18 panels A and B). We performed similar assays for all possible mispairs (Table IX).
# To address these concerns, the insertion fidelity of the JDF-3 P410L/A485T and Taq F667Y mutants was compared. In the first set of fidelity assays, a constant amount of primer:template, an unlabeled complementary ddNTP, and increasing concentrations of R110-labeled non-complementary ddNTP was used (Materials and Methods). […] The amount of misextended primers was determined and plotted against the ratio of R110-labeled incorrect ddNTP/unlabeled correct ddNTP (FIG. 27, panels A and B). Similar assays for all 12 possible mispairs was performed (ddG:dT, ddT:dG, ddT:dC, ddC:dT, ddC:dA, ddA:dC, ddA:dG, ddG:dA, ddT:dT, ddC:dC, ddA:dA, ddG:dG). […] The other mispairs are formed less frequently, and at similar rates for the JDF-3 P410L/A485T and Taq F667Y mutants (data not shown).
# Fidelity assays using labeled ddNTPs (10 μl) contained 1 unit DNA polymerase in 1× reaction buffer, 15 nM primer: template, 25 nM of unlabeled complementary ddNTP, and 25, 100, 500, or 1000 nM of rhodamine-labeled non-complementary ddNTP in four separate reactions. The reactions were incubated in a Perkin-Elmer 9600 for 25 cycles as follows: 96° C. for 10 s, 50° C. for 5 s, and 60° C. for 30 s. The reactions were quenched and analyzed as above.
substance,measurement,setting,value
"Taq F667Y: ThermoSequenase, Taq F667Y mutant DNA polymerase from Amersham Pharmacia Biotech","Km for wrong nucleotide (ddGTP) opposite dT, lower than JDF-3 P410L/A485T",[1],7 fold
same,"misinsertion frequency for ddG:dT, higher than JDF-3 P410L/A485T",[1],~17 fold
same,M.F. (M.E./I.E.) misinsertion frequency,[1]; ddG:dT mispair,0.053
same,"misinsertion frequency for ddG:dT, higher than JDF-3 P410L/A485T",[1]; listed as Taq F667Y mutant,approximately 17 fold
same,"I.E. Vmax, TAMRA-ddATP insertion","[1]; opposite dT, pBL34A primer",1.9
same,"M.E. Vmax, TAMRA-ddGTP misinsertion","[1]; opposite dT, pBL34A primer",16.9
same,Km,"[1]; opposite dT, pBL34A primer, read-out: I.E. Km, TAMRA-ddATP insertion",0.0006 µM
same,Km,"[1]; opposite dT, pBL34A primer, read-out: M.E. Km, TAMRA-ddGTP misinsertion",0.1 µM
same,misincorporation of unlabeled ddNTPs,[2],"greater tendency to misincorporate unlabeled ddG opposite dT, and unlabeled ddT opposite dC"
same,preference order of ddNTP bases,[3],G>C>A>T
same,"ddG:dT mispair formation frequency, higher than JDF-3 P410L/A485T",[4],20 fold
same,"ddT:dC mispair formation frequency, higher than JDF-3 P410L/A485T",[4],3 fold
